Source: patent publication US20250368649A1, “TETRAHYDROPYRIDOPYRIMIDINE PAN-KRAS INHIBITORS” (Mirati Therapeutics, Inc., priority 2022, published 2025)

What was measured:
KRas G12V = KRas G12V (Homo sapiens, UniProt P01116, G12V); assay: biochemical; conditions: Binding to KRas (IC50 nM) G12V, TR-FRET displacement, KRas G12V
H460 cells = assay: Inhibition of KRas-mediated phosphorylation of ERK (Cisbio HTRF pERK), H460 cells; type: cell-based; conditions: Homo sapiens; for inhibition at 0.1 µM: NCI-H460, single point at 100 nM, 3 hrs compound incubation
MKN1 cells = assay: Inhibition of KRas-mediated phosphorylation of ERK (Cisbio HTRF pERK), MKN1 cells; type: cell-based; conditions: Homo sapiens, MKN-1, 3 hour compound incubation, Cisbio pERK HTRF
Protocol: (§1) Inhibition of KRas Phosphorylation of ERK (HTRF) by Exemplary Compounds of Formula (I) Cisbio HTRF Advanced pERK Assay Catalog #64AERPEH • Cells: MKN1, PSN1 • Procedure: • Day 1: Seed 6,000 cells/well -25 µl/well in 384-well white solid bottom plate; RPM1_10% FBS.

H727 cells = assay: Inhibition of KRas-mediated phosphorylation of ERK (Cisbio HTRF pERK), H727 cells; type: cell-based; conditions: Homo sapiens; for IC50: NCI-H727, 3 h, 3 hr compound incubation, Cisbio pERK HTRF
KRas G12R = KRas G12R (Homo sapiens, UniProt P01116, G12R); assay: biochemical; conditions: Binding to KRas (IC50 nM) G12R, TR-FRET displacement, KRas G12R
ASPC1 cells = assay: Inhibition of KRas-mediated phosphorylation of ERK (Cisbio HTRF pERK), ASPC1 cells; type: cell-based; conditions: Homo sapiens, AsPC-1 cells; for IC50: ASPC1, 3 h, 3 hr compound incubation, Cisbio pERK HTRF
PSN1 cells = assay: Inhibition of KRas-mediated phosphorylation of ERK (Cisbio HTRF pERK), PSN1 cells; type: cell-based; conditions: Homo sapiens, PSN1, 3 h, 3 hour compound incubation, Cisbio pERK HTRF
Protocol: as §1

HCT116 cells = assay: Inhibition of KRas-mediated phosphorylation of ERK (Cisbio HTRF pERK), HCT116 cells; type: cell-based; conditions: Homo sapiens; for inhibition at 0.1 µM: HCT-116, single point at 100 nM, 3 hrs compound incubation; for IC50: HCT-116, 3 h, 3 hr compound incubation, Cisbio pERK HTRF
KRas G12D = KRas G12D (Homo sapiens, UniProt P01116, G12D); assay: biochemical; conditions: Binding to KRas (IC50 nM) G12D, TR-FRET displacement, KRas G12D
A549 cells = assay: Inhibition of KRas-mediated phosphorylation of ERK (Cisbio HTRF pERK), A549 cells; type: cell-based; conditions: Homo sapiens; for IC50: A549, 3 h, 3 hr compound incubation, Cisbio pERK HTRF; for inhibition at 0.1 µM: single point at 100 nM, 3 hrs compound incubation
H358 cells = assay: Inhibition of KRas-mediated phosphorylation of ERK (Cisbio HTRF pERK), H358 cells; type: cell-based; conditions: Homo sapiens, NCI-H358, single point at 100 nM, 3 hrs compound incubation

Chain of KRas G12R (P01116 1-169 isoform P01116-2 G12R): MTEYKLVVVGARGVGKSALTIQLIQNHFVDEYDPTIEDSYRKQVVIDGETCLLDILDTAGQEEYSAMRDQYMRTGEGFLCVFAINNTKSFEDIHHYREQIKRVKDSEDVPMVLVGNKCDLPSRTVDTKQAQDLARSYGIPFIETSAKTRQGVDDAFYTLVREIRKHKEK
Chain of KRas G12V (P01116 1-169 isoform P01116-2 G12V): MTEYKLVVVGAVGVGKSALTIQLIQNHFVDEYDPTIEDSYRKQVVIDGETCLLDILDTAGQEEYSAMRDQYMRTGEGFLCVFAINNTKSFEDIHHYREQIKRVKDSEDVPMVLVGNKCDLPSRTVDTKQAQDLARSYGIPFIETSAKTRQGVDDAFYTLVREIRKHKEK
Chain of KRas G12D (P01116 1-169 isoform P01116-2 G12D): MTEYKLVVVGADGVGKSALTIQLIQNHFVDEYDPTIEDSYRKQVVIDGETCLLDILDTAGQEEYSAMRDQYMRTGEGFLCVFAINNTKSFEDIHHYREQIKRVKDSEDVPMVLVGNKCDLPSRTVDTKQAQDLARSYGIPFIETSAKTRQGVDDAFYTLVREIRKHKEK

| SMILES | IC50 (KRas G12V) [nM] | IC50 (MKN1 cells) [nM] | IC50 (H727 cells) [nM] | IC50 (KRas G12R) [nM] | IC50 (ASPC1 cells) [nM] | IC50 (PSN1 cells) [nM] | IC50 (KRas G12D) [nM] | IC50 (A549 cells) [nM] | IC50 (HCT116 cells) [nM] | IC50 (H460 cells; NCI-H460, 3 h, 3 hr compound incubation, Cisbio pERK HTRF) [nM] | inhibition at 0.1 µM (H460 cells) [%] | inhibition at 0.1 µM (HCT116 cells) [%] | inhibition at 0.1 µM (A549 cells) [%] | inhibition at 0.1 µM (H358 cells) [%] | inhibition at 0.1 µM (H727 cells; NCI-H727, single point at 100 nM, 3 hrs compound incubation) [%] | inhibition at 0.1 µM (ASPC1 cells; ASPC1, single point at 100 nM, 3 hrs compound incubation) [%] |
| --- | --- | --- | --- | --- | --- | --- | --- | --- | --- | --- | --- | --- | --- | --- | --- | --- |
| CCc1c(F)ccc2cc(O)cc(N3CCc4c(nc(OC[C@@]56CCCN5C[C@H](F)C6)nc4N4CCCn5nc(CNC(=O)N(C)C)cc5C4)C3)c12 [Example 354, 3-((5-(7-(8-ethyl-7-fluoro-3-hydroxynaphthalen-1-yl)-2-(((2R,7aS)-2-fluorohexahydro-1H-pyrrolizin-7a-yl)methoxy)-5,6,7,8-tetrahydropyrido[3,4-d]pyrimidin-4-yl)-5,6,7,8-tetrahydro-4H-pyrazolo[1,5-a][1,4]diazepin-2-yl)methyl)-1,1-dimethylurea] | 4 | 814 | 1220 | 5 | 1060 | > 10000 | 3 |  |  |  | 8 | 11 |  |  |  |  |
| CCc1c(F)ccc2cc(O)cc(N3CCc4c(nc(OC[C@@]56CCCN5C[C@H](F)C6)nc4N4CCCc5nc[nH]c5C4)C3)c12 [Example 357, 4-(4-(7,8-dihydroimidazo[4,5-c]azepin-5(3H,4H,6H)-yl)-2-(((2R,7aS)-2-fluorohexahydro-1H-pyrrolizin-7a-yl)methoxy)-5,6-dihydropyrido[3,4-d]pyrimidin-7(8H)-yl)-5-ethyl-6-fluoronaphthalen-2-ol] | 6 | 2600 | 1830 | 7 | 4410 | > 10000 | 11 |  |  |  | 12 | -20 |  |  |  |  |
| CCc1c(F)ccc2cc(O)cc(N3CCc4c(nc(OC[C@@]56CCCN5C[C@H](F)C6)nc4N4CCCc5n[nH]cc5C4)C3)c12 [Example 361, 4-(4-(7,8-dihydropyrazolo[4,3-c]azepin-5(2H,4H,6H)-yl)-2-(((2R,7aS)-2-fluorohexahydro-1H-pyrrolizin-7a-yl)methoxy)-5,6-dihydropyrido[3,4-d]pyrimidin-7(8H)-yl)-5-ethyl-6-fluoronaphthalen-2-ol] | 6 | 401 | 466 | 5 | 636 | > 10000 | 14 |  |  |  | 1 | -11 |  |  |  |  |
| CCc1c(F)ccc2cc(O)cc(N3CCc4c(nc(OC[C@@]56CCCN5C[C@H](F)C6)nc4N4CCCC(O)(C(N)=O)C4)C3)c12 (stereo partly drawn) [Example 368, 1-(7-(8-ethyl-7-fluoro-3-hydroxynaphthalen-1-yl)-2-(((2R,7aS)-2-fluorohexahydro-1H-pyrrolizin-7a-yl)methoxy)-5,6,7,8-tetrahydropyrido[3,4-d]pyrimidin-4-yl)-3-hydroxypiperidine-3-carboxamide] | 5 | 69.1 | 489 | 6 | 666 | 7050 | 10 |  |  |  | 31 | 1 |  |  |  |  |
| CCc1c(NC)nn2c1CN(c1nc(OC[C@@]34CCCN3C[C@H](F)C4)nc3c1CCN(c1cc(O)cc4ccc(F)c(CC)c14)C3)CCC2 [Example 404] | 6 | 43.5 | 188 | 3 | 182 | > 10000 | 5 | 134 | 424 | 178 |  |  |  |  |  |  |
| Oc1cc(N2CCc3c(nc(OC[C@@]45CCCN4C[C@H](F)C5)nc3N3CCCC4(CCSC4)C3)C2)c2c(Cl)c(F)ccc2c1 (stereo partly drawn) [Example 464, 5-chloro-6-fluoro-4-(2-(((2R,7aS)-2-fluorohexahydro-1H-pyrrolizin-7a-yl)methoxy)-4-(2-thia-7-azaspiro[4.5]decan-7-yl)-5,6-dihydropyrido[3,4-d]pyrimidin-7(8H)-yl)naphthalen-2-ol] | 8 | 676 | 1180 | 12 | 1000 | > 10000 | 9 |  |  |  | -24 | 14 |  |  |  |  |
| CCCCN(C)C(=O)c1cc2n(n1)CCCN(c1nc(OC[C@@]34CCCN3C[C@H](F)C4)nc3c1CCN(c1cc(O)cc4ccc(F)c(CC)c14)C3)C2 [Example 496, N-butyl-5-(7-(8-ethyl-7-fluoro-3-hydroxynaphthalen-1-yl)-2-(((2R,7aS)-2-fluorohexahydro-1H-pyrrolizin-7a-yl)methoxy)-5,6,7,8-tetrahydropyrido[3,4-d]pyrimidin-4-yl)-N-methyl-5,6,7,8-tetrahydro-4H-pyrazolo[1,5-a][1,4]diazepine-2-carboxamide] | < 2 | 16.3 | 19 | < 2 | 10 | 5350 | < 2 |  |  |  |  |  | 95 | 97 | 71 | 96 |

Further lines, with some results ahead:

| IC50 (KRas G12V) [nM] | IC50 (MKN1 cells) [nM] | IC50 (H727 cells) [nM] | IC50 (KRas G12R) [nM] | IC50 (ASPC1 cells) [nM] | IC50 (PSN1 cells) [nM] | IC50 (KRas G12D) [nM] | IC50 (A549 cells) [nM] | IC50 (HCT116 cells) [nM] | IC50 (H460 cells; NCI-H460, 3 h, 3 hr compound incubation, Cisbio pERK HTRF) [nM] | SMILES | inhibition at 0.1 µM (H460 cells) [%] | inhibition at 0.1 µM (HCT116 cells) [%] | inhibition at 0.1 µM (A549 cells) [%] | inhibition at 0.1 µM (H358 cells) [%] | inhibition at 0.1 µM (H727 cells; NCI-H727, single point at 100 nM, 3 hrs compound incubation) [%] | inhibition at 0.1 µM (ASPC1 cells; ASPC1, single point at 100 nM, 3 hrs compound incubation) [%] |
| --- | --- | --- | --- | --- | --- | --- | --- | --- | --- | --- | --- | --- | --- | --- | --- | --- |
| 6 | 417 | 562 | 9 | 597 | > 10000 | 3 |  |  |  | CCc1c(F)ccc2cc(O)cc(N3CCc4c(nc(OC[C@@]56CCCN5C[C@H](F)C6)nc4N4CCCn5nc(N(C)C(C)=O)cc5C4)C3)c12 [Example 355, N-(5-(7-(8-ethyl-7-fluoro-3-hydroxynaphthalen-1-yl)-2-(((2R,7aS)-2-fluorohexahydro-1H-pyrrolizin-7a-yl)methoxy)-5,6,7,8-tetrahydropyrido[3,4-d]pyrimidin-4-yl)-5,6,7,8-tetrahydro-4H-pyrazolo[1,5-a][1_4]diazepin-2-yl)-N-methylacetamide] | 18 | -28 |  |  |  |  |
| 3 | 216 | 284 | 3 | 262 | > 10000 | < 2 | 524 |  |  | CCc1c(F)ccc2cc(O)cc(N3CCc4c(nc(OC[C@@]56CCCN5C[C@H](F)C6)nc4N4CCCn5nc(NC(C)=O)cc5C4)C3)c12 [Example 356, N-(5-(7-(8-ethyl-7-fluoro-3-hydroxynaphthalen-1-yl)-2-(((2R,7aS)-2-fluorohexahydro-1H-pyrrolizin-7a-yl)methoxy)-5,6,7,8-tetrahydropyrido[3,4-d]pyrimidin-4-yl)-5,6,7,8-tetrahydro-4H-pyrazolo[1,5-a][1,4]diazepin-2-yl)acetamide] | 28 | -2 |  |  |  |  |
| 3 | 456 | 716 | < 2 | 997 | > 10000 | 2 |  |  |  | CCc1c(F)ccc2cc(O)cc(N3CCc4c(nc(OC[C@@]56CCCN5C[C@H](F)C6)nc4N4CCCn5nc(NS(C)(=O)=O)cc5C4)C3)c12 [Example 364, N-(5-(7-(8-ethyl-7-fluoro-3-hydroxynaphthalen-1-yl)-2-(((2R,7aS)-2-fluorohexahydro-1H-pyrrolizin-7a-yl)methoxy)-5,6,7,8-tetrahydropyrido[3,4-d]pyrimidin-4-yl)-5,6,7,8-tetrahydro-4H-pyrazolo[1,5-a][1,4]diazepin-2-yl)methanesulfonamide] | 13 | 10 |  |  |  |  |
| < 2 | 54.8 | 214 | < 2 | 492 | > 10000 | < 2 |  | > 10000 |  | CCc1c(F)ccc2cc(O)cc(N3CCc4c(nc(OC[C@@]56CCCN5C[C@H](F)C6)nc4N4CCCn5nc(C(=O)O)cc5C4)C3)c12 [Example 389, 5-(7-(8-ethyl-7-fluoro-3-hydroxynaphthalen-1-yl)-2-(((2R,7aS)-2-fluorohexahydro-1H-pyrrolizin-7a-yl)methoxy)-5,6,7,8-tetrahydropyrido[3,4-d]pyrimidin-4-yl)-5,6,7,8-tetrahydro-4H-pyrazolo[1,5-a][1,4]diazepine-2-carboxylic acid] |  |  | -36 | 23 |  |  |
